Format in all cases: biochemical
In one experiment the target is S6K1 (Homo sapiens (Human), UniProt P23443). Put plainly: Inhibitory effects on S6K1 kinase activity (QSS Assist FP assay kit). The conditions noted are these: S6K1, ATP 25 μM; read-out: S6K inhibitory activity IC50. On the procedure: Inhibitory activity of the compound according to the present invention on S6K1 kinase activity in vitro was assayed using the QSS Assist™ FP assay kit (Carna Biosciences, Inc.).
In the inhibition assay for inhibitory activity of the compound, the test compound was diluted by serial dilution with dimethyl sulfoxide (DMSO). Subsequently, an S6K protein, a substrate peptide (final concentration: 100 nM), magnesium chloride (final concentration: 5 mM), ATP (final concentration: 25 μM), and the solution of the test compound in DMSO (final DMSO concentration: 5%) were added to the kinase reaction buffer (20 mM HEPES (pH 7.4), 2 mM dithiothreitol, 0.01% Tween-20), and the mixture was incubated at 25° C. for 30 minutes to perform the kinase reaction. The IMAP Progressive Binding Reagent diluted to 400-fold with the IMAP Progressive Binding Buffer A (Molecular Devices, LLC) was added thereto to terminate the kinase reaction. The reaction product was allowed to stand at room temperature in the dark for 120 minutes and assayed with the use of PHERAstar (BMG LABTECH; excitation wavelength: 485 nm; detection wavelength: 520 nm). The level of phosphorylation reaction was determined based on the degree of fluorescence polarization, and the concentration of the compound at which phosphorylation could be inhibited by 50% was defined as the IC50 level (nM) and shown in Table 4.

Another experiment concerns the target Rsk1 (Homo sapiens (Human), UniProt Q15418). Kind of experiment: Inhibitory effects on Rsk1 kinase activity (QSS Assist FP assay kit). The settings on record: Rsk1, ATP 30 μM; read-out: Rsk inhibitory activity IC50. On the procedure:
Inhibitory activity of the compound according to the present invention on Rsk1 kinase activity in vitro was assayed using the QSS Assist™ FP assay kit (Carna Biosciences, Inc.).
In the inhibition assay of inhibitory activity of the compound, the test compound was diluted by serial dilution with dimethyl sulfoxide (DMSO). Subsequently, an Rsk1 protein, a substrate peptide (final concentration: 100 nM), magnesium chloride (final concentration: 10 mM), ATP (final concentration: 30 μM), and the solution of the test compound in DMSO (DMSO final concentration: 5%) were added to the kinase reaction buffer (20 mM HEPES (pH 7.4), 2 mM dithiothreitol, 0.01% Tween-20), and the mixture was incubated at 25° C. for 40 minutes to perform the kinase reaction. The IMAP Progressive Binding Reagent diluted to 400-fold with the IMAP Progressive Binding Buffer A (Molecular Devices, LLC) was added to terminate the kinase reaction.

Another experiment concerns the target human Akt1 (Homo sapiens (Human), UniProt P31749). Put plainly: Inhibitory effects on Akt1 kinase activity (TR-FRET, biotinylated Crosstide). The conditions noted are these: Akt1, ATP 150 μM, pre-incubation 120 minutes at 25° C.; read-out: AKT inhibitory activity IC50. The protocol:
Akt1 was prepared and assays of inhibitory activity of the compound according to the present invention against Akt1 kinase activity in vitro were conducted according to the method described in Biochem. J., vol. 385, pp. 399-408, 2005 and Cancer Res., vol. 68, pp. 2366-2374, 2008. In the preparation of Akt1 protein, human Akt1 tagged with the middle T antigen was expressed in an insect cell Sf9, Akt1 was prepared through affinity purification and activation by PDK1, and the resultant was stored at −80° C. until the inhibition assays of the compounds. In the inhibition assay of the compounds, Akt1 and the compound according to the present invention were subjected to pre-incubation at 25° C. for 120 minutes in a reaction buffer (15 mM Tris-HCl, pH 7.5, 0.01% Tween-20, 2 mM DTT). Subsequently, biotinylated Crosstide (biotin-[…], Millipore), MgCl2, and ATP were added as substrates at the final concentration of 500 nM, 10 mM, and 150 μM, respectively, and the reaction was allowed to proceed at 25° C. for 60 minutes. EDTA was added to the final concentration of 40 mM to terminate the reaction, a detection liquid containing the Eu-anti-phospho-Crosstide antibody (PerkinElmer) and SureLight APC-SA (PerkinElmer) at the final concentration of 0.5 nM and 62.5 nM, respectively was added, and the reaction was allowed to proceed at room temperature for 2 hours. In the end, the fluorescence levels irradiated with an excitation light of 337 nm were assayed at two different wavelength levels (i.e., 620 nm and 665 nm) using PI-HERAstar FS (BMG LABTECH) or PHERAstar (BMG LABTECH). The level of the phosphorylation reaction was determined on the basis of the ratio of fluorescence levels at two wavelength levels, and the concentration of the compound at which phosphorylation could be inhibited by 50% was defined as the IC50 level (nM) and shown in Table 2.
As reference compounds, conventional Comparative Example A (WO 2010/056563 (Example 31)) and Comparative Example B having inhibitory activity against Akt were used.
A general note: TR-FRET usually uses a lanthanide donor and a delayed reading to cut background.

pIC50: −log10 of the molar value.

S6K1, sequence (P23443 whole entry): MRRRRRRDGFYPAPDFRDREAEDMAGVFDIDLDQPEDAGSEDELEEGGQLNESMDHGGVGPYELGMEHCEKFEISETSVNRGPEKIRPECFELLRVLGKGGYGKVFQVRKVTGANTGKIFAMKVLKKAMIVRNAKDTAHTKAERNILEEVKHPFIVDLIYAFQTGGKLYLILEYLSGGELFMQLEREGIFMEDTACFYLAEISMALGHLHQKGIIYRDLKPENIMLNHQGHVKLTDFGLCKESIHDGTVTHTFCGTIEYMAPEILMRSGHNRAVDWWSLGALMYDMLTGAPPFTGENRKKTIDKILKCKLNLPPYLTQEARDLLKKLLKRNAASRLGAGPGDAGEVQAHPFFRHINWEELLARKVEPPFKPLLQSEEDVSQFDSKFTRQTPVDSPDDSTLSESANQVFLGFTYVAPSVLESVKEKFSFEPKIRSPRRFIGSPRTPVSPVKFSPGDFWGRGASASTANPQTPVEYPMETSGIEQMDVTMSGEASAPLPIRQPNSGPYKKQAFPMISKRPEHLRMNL
human Akt1, sequence (P31749 whole entry): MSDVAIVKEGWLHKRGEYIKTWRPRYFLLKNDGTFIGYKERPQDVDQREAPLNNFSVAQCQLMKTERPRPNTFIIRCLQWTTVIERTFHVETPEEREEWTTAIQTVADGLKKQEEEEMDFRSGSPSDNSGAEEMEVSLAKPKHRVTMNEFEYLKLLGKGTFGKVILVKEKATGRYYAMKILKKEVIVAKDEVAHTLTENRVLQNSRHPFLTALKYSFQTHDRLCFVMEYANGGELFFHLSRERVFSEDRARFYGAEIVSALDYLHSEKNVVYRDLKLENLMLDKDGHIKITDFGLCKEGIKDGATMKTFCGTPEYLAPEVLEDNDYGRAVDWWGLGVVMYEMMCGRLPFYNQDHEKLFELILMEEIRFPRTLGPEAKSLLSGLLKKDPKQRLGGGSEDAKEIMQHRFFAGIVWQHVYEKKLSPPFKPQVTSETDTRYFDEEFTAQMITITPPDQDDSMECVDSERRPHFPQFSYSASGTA
Rsk1, sequence (Q15418 whole entry): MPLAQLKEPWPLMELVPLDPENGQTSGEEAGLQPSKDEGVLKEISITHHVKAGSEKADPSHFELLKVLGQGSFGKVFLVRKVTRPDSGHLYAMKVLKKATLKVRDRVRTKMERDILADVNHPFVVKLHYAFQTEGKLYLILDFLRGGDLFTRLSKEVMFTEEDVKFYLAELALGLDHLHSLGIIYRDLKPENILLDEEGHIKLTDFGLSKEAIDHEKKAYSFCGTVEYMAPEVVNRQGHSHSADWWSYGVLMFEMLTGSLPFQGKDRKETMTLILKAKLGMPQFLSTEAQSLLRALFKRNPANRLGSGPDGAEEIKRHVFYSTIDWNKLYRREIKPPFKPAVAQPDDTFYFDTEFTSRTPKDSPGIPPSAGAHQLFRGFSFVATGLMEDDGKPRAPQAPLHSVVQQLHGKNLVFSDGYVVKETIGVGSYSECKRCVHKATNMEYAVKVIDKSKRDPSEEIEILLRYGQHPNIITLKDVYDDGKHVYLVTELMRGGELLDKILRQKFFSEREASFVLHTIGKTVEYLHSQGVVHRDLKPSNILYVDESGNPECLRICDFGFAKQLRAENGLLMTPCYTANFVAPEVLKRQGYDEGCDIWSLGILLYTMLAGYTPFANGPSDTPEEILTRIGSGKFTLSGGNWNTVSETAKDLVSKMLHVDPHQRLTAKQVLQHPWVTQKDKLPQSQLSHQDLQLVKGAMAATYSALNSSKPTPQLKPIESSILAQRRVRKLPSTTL

A word on the pIC50: it is −log10 of the IC50, conventionally taken in molar units. For `CC1(C)C(=O)Nc2ncnc(N3CCC(c4nc(-c5ccc(F)nc5)ccc4NCCN4CCCC4)CC3)c21` [Compound 2, 4-(4-(6′-Fluoro-5-((2-(pyrrolidin-1-yl)ethyl)amino)-[2,3′-bipyridin]-6-yl)piperidin-1-yl)-5,5-dimethyl-5H-pyrrolo[2,3-d]pyrimidin-6(7H)-one], the negative logarithm of the IC50 (pIC50) at S6K1 was 9.52; at Rsk1, 8.82.
For the molecule `Cc1cc(-c2ccc(NCCN3CCCC3)c(C3CCN(c4ncnc5c4C(C)(C)C(=O)N5)CC3)n2)n(C)n1` [Compound 3, 4-(4-(6-(1,3-Dimethyl-1H-pyrazol-5-yl)-3-((2-(pyrrolidin-1-yl)ethyl)amino)pyridin-2-yl)piperidin-1-yl)-5,5-dimethyl-5H-pyrrolo[2,3-d]pyrimidin-6(7H)-one], the pIC50 on S6K1 is 9.40.
Same read-out and setting: for `CC(C)(C)NCCNc1ccc(-c2cnn(C(F)F)c2)nc1C1CCN(c2ncnc3c2C(C)(C)C(=O)N3)CC1` [Compound 4] the value was 9.40.
For `CC(C)NCCNc1ccc(-c2cnc(F)c(F)c2)nc1C1CCN(c2ncnc3c2C(C)(C)C(=O)N3)CC1` [Compound 5, 4-(4-(5′,6′-Difluoro-5-((2-(isopropylamino)ethyl)amino)-[2,3′-bipyridin]-6-yl)piperidin-1-yl)-5,5-dimethyl-5H-pyrrolo[2,3-d]pyrimidin-6(7H)-one], the pIC50 on S6K1 is 9.52; on Rsk1, 9.15; at human Akt1, 8.46.
Take `Cc1nc(C)c(-c2ccc(NCCNC(C)C)c(C3CCN(c4ncnc5c4C(C)(C)C(=O)N5)CC3)n2)s1` [Compound 6, 4-(4-(6-(2,4-Dimethylthiazol-5-yl)-3-((2-(isopropylamino)ethyl)amino)pyridin-2-yl)piperidin-1-yl)-5,5-dimethyl-5H-pyrrolo[2,3-d]pyrimidin-6(7H)-one]: the figures for the pIC50 on S6K1 and on Rsk1 were 9.40 and 9.00, respectively.
Turning to `COc1cncc(-c2ccc(NCCN3CCCC3)c(C3CCN(c4ncnc5c4C(C)(C)C(=O)N5)CC3)n2)c1` [Compound 7, 4-(4-(5′-Methoxy-5-((2-(pyrrolidin-1-yl)ethyl)amino)-[2,3′-bipyridin]-6-yl)piperidin-1-yl)-5,5-dimethyl-5H-pyrrolo[2,3-d]pyrimidin-6(7H)-one], the pIC50 on S6K1 is 9.52; at Rsk1, 8.77.
Turning to `CC1(C)C(=O)Nc2ncnc(N3CCC(c4nc(-c5cncc(F)c5)ccc4NCCN4CCCC4)CC3)c21` [Compound 8, 4-(4-(5′-Fluoro-5-((2-(pyrrolidin-1-yl)ethyl)amino)-[2,3′-bipyridin]-6-yl)piperidin-1-yl)-5,5-dimethyl-5H-pyrrolo[2,3-d]pyrimidin-6(7H)-one], the results for the pIC50 at S6K1 and on Rsk1 were 9.52 and 8.77, respectively.
For `CN(C)CCNc1ccc(-c2cc(Cl)nn2C)nc1C1CCN(c2ncnc3c2C(C)(C)C(=O)N3)CC1` [Compound 9, 4-(4-(6-(3-Chloro-1-methyl-1H-pyrazol-5-yl)-3-((2-(dimethylamino)ethyl)amino)pyridin-2-yl)piperidin-1-yl)-5,5-dimethyl-5H-pyrrolo[2,3-d]pyrimidin-6(7H)-one], in that order: 9.52 and 8.96.
For the molecule `CC(C)NCCNc1ccc(-c2cc(C(F)(F)F)nn2C)nc1C1CCN(c2ncnc3c2C(C)(C)C(=O)N3)CC1` [Compound 10, 4-(4-(3-((2-(Isopropylamino)ethyl)amino)-6-(1-methyl-3-(trifluoromethyl)-1H-pyrazol-5-yl)pyridin-2-yl)piperidin-1-yl)-5,5-dimethyl-5H-pyrrolo[2,3-d]pyrimidin-6(7H)-one], the pIC50 at S6K1 was 9.52; on Rsk1, 9.05.
With `CCNCCNc1ccc(-c2cncc(F)c2)nc1C1CCN(c2ncnc3c2C(C)(C)C(=O)N3)CC1` [Compound 12, 4-(4-(5-((2-(Ethylamino)ethyl)amino)-5′-fluoro[2,3′-bipyridin]-6-yl)piperidin-1-yl)-5,5-dimethyl-5H-pyrrolo[2,3-d]pyrimidin-6(7H)-one], the results for the pIC50 on S6K1 and on Rsk1 were 9.52 and 8.74, respectively.
Turning to `Cc1ncccc1-c1ccc(NCCN2CCCC2)c(C2CCN(c3ncnc4c3C(C)C(=O)N4)CC2)n1` (stereo not shown) [Compound 22, 5-Methyl-4-(4-(2′-methyl-5-((2-(pyrrolidin-1-yl)ethyl)amino)-[2,3′-bipyridin]-6-yl)piperidin-1-yl)-5H-pyrrolo[2,3-d]pyrimidin-6(7H)-one], at human Akt1, the pIC50 was 8.74.
Take `CC1C(=O)Nc2ncnc(N3CCC(c4nc(-c5ncco5)ccc4NCCN4CCCC4)CC3)c21` (stereo not shown) [Compound 25, 5-Methyl-4-(4-(6-(oxazol-2-yl)-3-((2-(pyrrolidin-1-yl)ethyl)amino)pyridin-2-yl)piperidin-1-yl)-5H-pyrrolo[2,3-d]pyrimidin-6(7H)-one]: at human Akt1, the pIC50 was 8.57.
Regarding `CC(C)NCCNc1cc(F)c(-c2cncc(F)c2)nc1C1CCN(c2ncnc3c2C(C)(C)C(=O)N3)CC1` [Compound 28, 4-(4-(3,5′-Difluoro-5-((2-(isopropylamino)ethyl)amino)-[2,3′-bipyridin]-6-yl)piperidin-1-yl)-5,5-dimethyl-5H-pyrrolo[2,3-d]pyrimidin-6(7H)-one], the negative-log IC50 (pIC50) at S6K1 was 9.52.
With `CC1C(=O)Nc2ncnc(N3CCN(c4nc(-c5cncc(F)c5)ccc4NCCN(C)C)CC3)c21` (stereo not shown) [Compound 29, 4-(4-(5-((2-(Dimethylamino)ethyl)amino)-5′-fluoro-[2,3′-bipyridin]-6-yl)piperazin-1-yl)-5-methyl-5H-pyrrolo[2,3-d]pyrimidin-6(7H)-one], the pIC50 at S6K1 is 9.10.
As to `CC1(C)C(=O)Nc2ncnc(N3CCC(c4nc(-c5nnc(C(F)(F)F)o5)ccc4NC[C@@H]4CCCN4)CC3)c21` [Compound 35, (S)-5,5-Dimethyl-4-(4-(3-((pyrrolidin-2-yl-methyl)amino)-6-(5-(trifluoromethyl)-1,3,4-oxadiazol-2-yl)pyridin-2-yl)piperidin-1-yl)-5H-pyrrolo[2,3-d]pyrimidin-6(7H)-one], the values for the pIC50 at S6K1 and at Rsk1 were 9.40 and 8.82, respectively.
Take `Cc1nnc(-c2ccc(NCCN3CCCC3)c(C3CCN(c4ncnc5c4C(C)(C)C(=O)N5)CC3)n2)s1` [Compound 36, 5,5-Dimethyl-4-(4-(6-(5-methyl-1,3,4-thiadiazol-2-yl)-3-((2-(pyrrolidin-1-yl)ethyl)amino)pyridin-2-yl)piperidin-1-yl)-5H-pyrrolo[2,3-d]pyrimidin-6(7H)-one]: the pIC50 at S6K1 is 9.40.
`CN(C)CCNc1ccc(-c2nnc(C(F)F)s2)nc1C1CCN(c2ncnc3c2C(C)(C)C(=O)N3)CC1` [Compound 38, 4-(4-(6-(5-(Difluoromethyl)-1,3,4-thiadiazol-2-yl)-3-((2-(dimethylamino)ethyl)amino)pyridin-2-yl)piperidin-1-yl)-5,5-dimethyl-5H-pyrrolo[2,3-d]pyrimidin-6(7H)-one]: the negative-log IC50 (pIC50) is 9.52 on S6K1 and 9.05 at Rsk1.
